This passage reports MTA, Block of activity and Activity results from ChEMBL document CHEMBL1122053, “A new, potent, conformationally restricted analogue of amphetamine: 2-amino-1,2-dihydronaphthalene” (1982).

The species entered for experiment [1] is Mus musculus. The experiment is described as follows: Evaluated for the spontaneous motor activity in mice and the mean total activity (MTA) was reported; Expressed as counts/90 min/3 mice. Format: functional.
The species named for experiment [2] is Mus musculus. In words: Evaluated for the percentage blockade of activity in mice. Format: functional.
For experiment [3], the system named is Mus musculus. In words: Ability to stimulate mice at dose of 8 mg/kg; Slight increase in spontaneous motor activity. It is filed as functional, organism-based. Also noted: dose 8 mg/kg.
For experiment [4], the system named is Rattus norvegicus. The experiment is described as follows: Number of rats falling (4) within each stereotypy classification after intraperitoneal administration (110 uM/Kg); continuous sniffing, with repetitive sequences of head and limb movements, as well as some licking and rearing (total rats 4). It is filed as functional, organism-based.
Experiment [5] deals with Rattus norvegicus. In words: Number of rats falling (3) within each stereotypy classification after intraperitoneal administration (110 uM/Kg); continuous sniffing, some head bobbing and weaving (total rats 4). It is filed as functional, organism-based.
Experiment [6] relates to Rattus norvegicus. The experiment is described as follows: Number of rats falling (1) within each stereotypy classification after intraperitoneal administration (110 uM/Kg); continuous sniffing, some arousal. It is filed as functional, organism-based.

Calls of active or inactive are those of the source. The rule behind the calls is not given here.

`CC(N)Cc1ccccc1.COC(=O)C(C)(N)Cc1ccc(O)cc1` (stereo not given): the MTA in experiment [1] turned out to be 5144. In addition, the Block of activity in experiment [2] is given as 64.2%.
For `NC1CCc2ccccc2C1` (stereo not given), the result in experiment [3] was Active.
In the case of `NC1C=Cc2ccccc2C1` (racemic), the Activity entry in experiment [4] is “continuous sniffing, with repetitive sequences of head and limb movements, as well as some licking and rearing (total rats 4)”.
On to `Cl.NC1C=Cc2ccccc2C1` (single isomer, unassigned; (-)), for which, in experiment [1], the MTA is 8566.
In experiment [1], `COC(=O)C(C)(N)Cc1ccc(O)cc1.NC1C=Cc2ccccc2C1` (stereo not given) registered an MTA of 3491. In experiment [2], the Block of activity was determined as 59.3%.
With `C[C@H](N)Cc1ccccc1` [DEXTROAMPHETAMINE], the MTA in experiment [1] was 14356.
Regarding `COC(=O)[C@H]1[C@H]2C[C@@H]3c4[nH]c5cc(OC)ccc5c4CCN3C[C@H]2C[C@@H](OC(=O)c2cc(OC)c(OC)c(OC)c2)[C@@H]1OC.Cl.NC1C=Cc2ccccc2C1` (racemic), the Activity entry is recorded as “continuous sniffing, some arousal” in experiment [5] and “continuous sniffing, some arousal” in experiment [6].
